{"source": "patent US10465005B2", "about": "“JAML specific binding agents, antibodies, and uses related thereto” (Emory University, priority 2011, dated 2019)", "molecules": {"B1": {"name": "soluble CAR: purified extracellular domain of CAR that was tagged with GST (protein)", "chain": "LSITTPEEMIEKAKGETAYLPCKFTLSPEDQGPLDIEWLISPADNQKVDQVIILYSGDKIYDDYYPDLKGRVHFTSNDLKSGDASINVTNLQLSDIGTYQCKVKKAPGVANKKIHLVVLVKPSGARCYVDGSEEIGSDFKIKCEPKEGSLPLQYEWQKLSDSQKMPTSWLAEMTSSVISVKNASSEYSGTYSCTVRNRVGSDQCLLRLNVVPPSNKAG", "modifications": "left off: a dimerising Fc or GST"}}, "key": {"PMN": {"test_system": "PMN", "test": "Surface JAML on PMN after activation (flow cytometry)", "assay_type": "cell-based, human", "procedure": "Freshly isolated PMN, not treated (No Tx), or treated with either fMLF (100 nM) or PMA (200 nM) in suspension for 15 minutes at 37° c. were fixed with 1% paraformaldehyde, stained for JAML (DW100) and CD11b/CD18 (CBRM 1/29) and analyzed for surface expression by flow cytometry.\nSince prior to transepithelial migration PMNs exit the blood vessels, whether JAML expression on PMNs would be preserved during migration across endothelial cells (HDMECs) towards a 10 μM fMLF, as described previously was evaluated. Indeed under similar conditions only a small portion of surface JAML was lost, but most of it was still detectable on PMN surface (FIG. 3B).\nThus whether PMN activation alone is sufficient to induce the loss of surface JAML or whether direct contact with the epithelium is required was examined. To test this, the expression of JAML was analyzed on PMNs that were stimulated in suspension with fMLF (100 μM) and PMA (200 nM). PMNs were allowed to adhere to epithelial cells for 1 hour. The loss of JAML could be correlated to the degree of PMN activation. […] This was again confirmed by immunofluorescence (FIG. 4B). PMN adhesion to epithelium in the absence of proinflamatory stimulus (as measured by flow cytometry, gating on Mac-1 positive PMNs) was also sufficient to induce a partial loss of surface JAML (FIG. 4C), in agreement with the small loss of surface JAML observed after migration through endothelial cells (FIG. 3B). […] Next, the observed loss of JAML during PMN activation may be due to its shedding from PMN surface and thus would be detectable in the supernatant of activated cells. To test this hypothesis, two antibodies, DW100 and DW216 that recognize two different epitopes of JAML were used in a sandwich ELISA assay to capture solubilized molecules in the supernatant of activated PMN."}, "T84 monolayers": {"test_system": "T84 monolayers", "test": "Epithelial barrier recovery after calcium switch (TER, dextran flux)", "assay_type": "cell-based, human", "conditions": "30 μg/ml, 20 m/ml, up to 24 hours, FIG. 9A", "procedure": "T84 monolayers grown on permeable supports were subjected to transient calcium depletion by preincubation in Ca2+ free buffer (PBS) for 40 min to disassemble tight junctions, followed by switching back to calcium containing medium without (No Tx), or with sJAML or a control recombinant IgSF protein sSIRPa (30 μg/ml). Barrier recovery was measured as transepithelial resistance (TER) at time points as indicated.\nFIG. 9B. Flux of fluorescently labeled dextran (3 k) was measured at the 24 h time point for conditions as described in panel A. N=4.\nSince CAR plays a role in epithelial barrier, the effect of soluble JAML on epithelial barrier recovery was tested. Transepithelial resistance (TER) recovery experiments and dextran flux assay were performed with T84 cells grown in transwells (FIG. 9) as well as with Caco2 cells. […] As a negative control, a related soluble IgSF molecule SIRPalpha had no effect."}, "[1]": {"test_system": "CHO-JAML and CHO-CAR cells", "test": "CHO-JAML / CHO-CAR cell aggregation assay", "assay_type": "cell-based", "conditions": "antibodies 30 μg/ml; 1 hour at 37° C.; FIG. 1D", "procedure": "FIG. 1D. CHO-K1 cells stably transfected with either JAML (CHO-JAML) or CAR (CHO-CAR) proteins were allowed to aggregate (1 hour at 37° C. on a shaker at 50 RPM) separately (1×10^6 cells/BSA coated 3 ml Petri dish), or as a mix (5×10^5 each cell type/dish), in the absence or presence of anti-JAML monoclonal antibodies DW100, DW55 and DW216 (30 μg/ml). The number of clusters (left) and the area of the clusters (right) were quantified in 7 randomly chosen fields using light microscopy. The results are representative of four independent experiments. CHO-CAR and CHO-JAML in mixed cultures formed large aggregates.\nBecause certain antibodies recognize the membrane distal domain of JAML, their ability to inhibit binding to CAR was tested. By ELISA, the levels of soluble CAR-GST bound to immobilized sJAML-His preincubated with anti JAML antibodies was measured. […] Thus, these antibodies recognize three different epitopes on JAML and that both DW100 and DW55 bind epitopes close to the JAML binding site. Using a cell aggregation assay, the possibility that DW100 could inhibit the binding of JAML to CAR expressed on the surface of cells was examined. […] This again confirms previously described JAML binding to CAR, as well as the specificity of DW100 (blocking) and DW216 (non-blocking) Abs to JAML."}}, "data": [{"molecule": "fMLF", "values": [{"measurement": "JAML expression on PMN after fMLF", "setting": "PMN; 10 μM fMLF", "result": "no significant effect on JAML expression"}, {"measurement": "surface JAML on PMN after fMLF", "setting": "PMN; 100 μM fMLF, FIG. 4A as described in Example 4", "result": "partial but significant loss of JAML"}, {"measurement": "surface JAML on PMN after fMLF", "setting": "PMN; fMLF 100 nM, suspension, 15 minutes at 37° c., FIG. 4A", "result": "partial loss of JAML"}]}, {"molecule": "SIRPalpha: control recombinant IgSF protein, related soluble IgSF molecule [reference compound]", "values": [{"measurement": "epithelial barrier recovery (TER) after calcium depletion", "setting": "T84 monolayers", "result": "had no effect"}]}, {"molecule": "B1", "values": [{"measurement": "aggregation of mixed CHO-CAR and CHO-JAML cultures (number and size of clusters)", "setting": "[1]", "result": "blocked"}]}]}
